The target of one test is T1, GLP-1 receptor (Rattus norvegicus, UniProt P32301).
T1 construct: 96-well assay plate containing RIN m5f cell membranes in an ATP/GTP mixture; endogenous in cells; host or cells: RIN m5f cell membranes
T1 sequence (P32301 22-463): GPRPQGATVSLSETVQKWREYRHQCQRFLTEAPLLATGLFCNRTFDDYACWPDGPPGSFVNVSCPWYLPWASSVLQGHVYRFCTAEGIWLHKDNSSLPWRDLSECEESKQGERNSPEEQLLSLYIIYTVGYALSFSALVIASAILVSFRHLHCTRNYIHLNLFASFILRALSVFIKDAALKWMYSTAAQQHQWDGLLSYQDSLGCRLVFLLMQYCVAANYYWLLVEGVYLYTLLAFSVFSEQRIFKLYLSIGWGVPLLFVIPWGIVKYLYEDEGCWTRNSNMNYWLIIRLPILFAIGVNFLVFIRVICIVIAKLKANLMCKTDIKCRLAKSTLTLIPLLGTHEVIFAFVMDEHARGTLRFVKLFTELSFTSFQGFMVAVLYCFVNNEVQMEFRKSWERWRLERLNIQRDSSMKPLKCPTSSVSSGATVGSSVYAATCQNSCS
Description: in vitro functional assay at the GLP-1 receptor (cyclase, cAMP production in RIN m5f cell membranes). It is filed as biochemical. To be noted: Cyclase GLP-1 Receptor EC50 (nM), Table 1; RIN m5f cell membranes, cAMP production (AlphaScreen). The procedure:
The compounds shown in Table 1 below were analyzed in an in vitro functional assay at the GLP-1 receptor. The assay was conducted as follows: Membrane fractions were prepared from confluent cultures of RIN m5f cells. Compounds were serially diluted with an assay buffer, and then added to a 96-well assay plate containing RIN m5f cell membranes in an ATP/GTP mixture. Cyclase activities were determined by measuring the production of cAMP induced through GLP-1 receptor activation. Quantification of cAMP production was achieved through a competitive chemiluminescence assay with a biotinylated-cAMP probe using Perkin Elmer Fusion™-Alpha Microplate Analyzer (AlphaScreen™ technology). The compound EC50 values were obtained through fitting the concentration-response curves to a four-parameter logistic equation within GraphPad PRISM® software.

For the next test, the system named is NIH/Swiss female mice. As to the kind of experiment: in vivo basal glucose lowering assay. The conditions noted are these: subcutaneous injection. How it is done:
Some compounds shown in Table 1 below were analyzed in an in vivo basal glucose lowering assay using the following procedure: A subcutaneous injection of either 200 μl phosphate-buffered saline (PBS) vehicle or test article was given immediately following baseline glucose (t=0) to NIH/Swiss female mice. Tail blood glucose samples were measured at t=2 and 4 hours post dose using a OneTouch® Ultra® (LifeScan, Inc., a Johnson & Johnson Company, Milpitas, Calif.). Body weight was measured daily. Significant test sample effects were identified by ANOVA (p<0.05), followed by Dunnett's post test using GraphPad Prism version 4.00 for Windows (GraphPad Software, San Diego Calif.).

Where [1] appears, read: Table 1, result in words (inactive / similar to GLP-1).

One may read the EC50 as the concentration at which the effect is half-maximal. High values mean a less potent agent, low ones a more potent agent.

As for `CC[C@H](C)[C@H](NC(=O)[C@H](Cc1ccccc1)NC(=O)[C@H](CC(C)C)NC(=O)[C@H](CCCNC(=N)N)NC(=O)[C@@H](NC(=O)[C@H](C)NC(=O)[C@H](CCC(=O)O)NC(=O)[C@H](CCC(=O)O)NC(=O)[C@H](CCC(=O)O)NC(=O)[C@H](CC(C)C)NC(=O)[C@H](CCC(N)=O)NC(=O)[C@H](CCCCN)NC(=O)[C@H](CO)NC(=O)[C@H](CC(C)C)NC(=O)[C@H](CC(=O)O)NC(=O)[C@H](CO)NC(=O)[C@@H](NC(=O)[C@H](Cc1ccccc1)NC(=O)[C@@H](NC(=O)[C@@H]1CSC2[C@H](CC(=O)O)[C@H](NC(=O)[C@H](C)NC(=O)[C@@H](N)Cc3c[nH]cn3)C(=O)N21)[C@@H](C)O)[C@@H](C)O)C(C)C)C(=O)N[C@@H](CCC(=O)O)C(=O)N[C@@H](Cc1c[nH]c2ccccc12)C(=O)N[C@@H](CC(C)C)C(=O)N[C@@H](CCCCN)C(=O)N[C@@H](CCC(N)=O)C(=O)NCC(=O)NCC(=O)N1CCC[C@H]1C(=O)N[C@@H](CO)C(=O)N[C@@H](CCCCN)C(=O)N[C@@H](CCC(=O)O)C(=O)N[C@H](C(=O)N[C@H](C(=O)N[C@@H](CO)C(=O)O)[C@@H](C)CC)[C@@H](C)CC` (some centres unmarked) [16A], the 50% effective concentration (EC50) on GLP-1 receptor turned out to be 0.52 nM. Also, the “In Vivo Glucose-Lowering Assay” value in the test with NIH/Swiss female mice (setting [1]) is “inactive”.

Turning to `CC[C@H](C)[C@H](NC(=O)[C@H](Cc1ccccc1)NC(=O)[C@H](CC(C)C)NC(=O)[C@H](CCCNC(=N)N)NC(=O)[C@@H](NC(=O)[C@H](C)NC(=O)[C@H](CCC(=O)O)NC(=O)[C@H](CCC(=O)O)NC(=O)[C@H](CCC(=O)O)NC(=O)[C@H](CC(C)C)NC(=O)[C@H](CCC(N)=O)NC(=O)[C@H](CCCCN)NC(=O)[C@H](CO)NC(=O)[C@H](CC(C)C)NC(=O)[C@H](CC(=O)O)NC(=O)[C@H](CO)NC(=O)[C@@H](NC(=O)[C@H](Cc1ccccc1)NC(=O)[C@@H](NC(=O)[C@@H]1CSC2C[C@@H](C(=O)O)[C@H](NC(=O)[C@H](C)NC(=O)[C@@H](N)Cc3c[nH]cn3)C(=O)N21)[C@@H](C)O)[C@@H](C)O)C(C)C)C(=O)N[C@@H](CCC(=O)O)C(=O)N[C@@H](Cc1c[nH]c2ccccc12)C(=O)N[C@@H](CC(C)C)C(=O)N[C@@H](CCCCN)C(=O)N[C@@H](CCC(N)=O)C(=O)NCC(=O)NCC(=O)N1CCC[C@H]1C(=O)N[C@@H](CO)C(=O)N[C@@H](CCCCN)C(=O)N[C@@H](CCC(=O)O)C(=O)N[C@H](C(=O)N[C@H](C(=O)N[C@@H](CO)C(=O)O)[C@@H](C)CC)[C@@H](C)CC` (some centres unmarked) [16C], a half-maximal response on GLP-1 receptor (EC50) required 1.1 nM. For the same molecule, in the test with NIH/Swiss female mice (setting [1]), the “In Vivo Glucose-Lowering Assay” value was “inactive”.

Consider `CC[C@H](C)[C@H](NC(=O)[C@H](Cc1ccccc1)NC(=O)[C@H](CC(C)C)NC(=O)[C@H](CCCNC(=N)N)NC(=O)[C@@H](NC(=O)[C@H](C)NC(=O)[C@H](CCC(=O)O)NC(=O)[C@H](CCC(=O)O)NC(=O)[C@H](CCC(=O)O)NC(=O)[C@H](CC(C)C)NC(=O)[C@H](CCC(N)=O)NC(=O)[C@H](CCCCN)NC(=O)[C@H](CO)NC(=O)[C@H](CC(C)C)NC(=O)[C@H](CC(=O)O)NC(=O)[C@H](CO)NC(=O)[C@@H](NC(=O)[C@H](Cc1ccccc1)NC(=O)[C@@H](NC(=O)CN1C[C@H](CC(=O)O)[C@H](NC(=O)[C@H](C)NC(=O)[C@@H](N)Cc2c[nH]cn2)C1=O)[C@@H](C)O)[C@@H](C)O)C(C)C)C(=O)N[C@@H](CCC(=O)O)C(=O)N[C@@H](Cc1c[nH]c2ccccc12)C(=O)N[C@@H](CC(C)C)C(=O)N[C@@H](CCCCN)C(=O)N[C@@H](CCC(N)=O)C(=O)NCC(=O)NCC(=O)N1CCC[C@H]1C(=O)N[C@@H](CO)C(=O)N[C@@H](CCCCN)C(=O)N[C@@H](CCC(=O)O)C(=O)N[C@H](C(=O)N[C@H](C(=O)N[C@@H](CO)C(=O)O)[C@@H](C)CC)[C@@H](C)CC` [16D], for which, on GLP-1 receptor, a half-maximal effect (EC50) was put at 1 nM. Moreover, the “In Vivo Glucose-Lowering Assay” value in the test with NIH/Swiss female mice (setting [1]) is “inactive”.

Molecule `CC[C@H](C)[C@H](NC(=O)[C@H](Cc1ccccc1)NC(=O)[C@H](CC(C)C)NC(=O)[C@H](CCCNC(=N)N)NC(=O)[C@@H](NC(=O)[C@H](C)NC(=O)[C@H](CCC(=O)O)NC(=O)[C@H](CCC(=O)O)NC(=O)[C@H](CCC(=O)O)NC(=O)[C@H](CC(C)C)NC(=O)[C@H](CCC(N)=O)NC(=O)[C@H](CCCCN)NC(=O)[C@H](CO)NC(=O)[C@H](CC(C)C)NC(=O)[C@H](CC(=O)O)NC(=O)[C@H](CO)NC(=O)[C@@H](NC(=O)[C@H](Cc1ccccc1)NC(=O)[C@@H](NC(=O)[C@H](C)N1CC[C@@H](C(=O)O)[C@H](NC(=O)[C@H](C)NC(=O)[C@@H](N)Cc2c[nH]cn2)C1=O)[C@@H](C)O)[C@@H](C)O)C(C)C)C(=O)N[C@@H](CCC(=O)O)C(=O)N[C@@H](Cc1c[nH]c2ccccc12)C(=O)N[C@@H](CC(C)C)C(=O)N[C@@H](CCCCN)C(=O)N[C@@H](CCC(N)=O)C(=O)NCC(=O)NCC(=O)N1CCC[C@H]1C(=O)N[C@@H](CO)C(=O)N[C@@H](CCCCN)C(=O)N[C@@H](CCC(=O)O)C(=O)N[C@H](C(=O)N[C@H](C(=O)N[C@@H](CO)C(=O)O)[C@@H](C)CC)[C@@H](C)CC` [16F] showed an EC50 at GLP-1 receptor of 0.61 nM. For the same molecule, the “In Vivo Glucose-Lowering Assay” value with NIH/Swiss female mice (Table 1, time printed in minutes) was “about 30 minutes”.

For the origin of these results see patent publication US8642544B2, “N-terminus conformationally constrained GLP-1 receptor agonist compounds” (Amylin Pharmaceuticals, LLC, priority 2009, dated 2014).
